In experiment [1] the target is T1, human plasma renin activity (Homo sapiens, UniProt P00797).
T1 construct: the human plasma contain and the substrate: angiotensinogen, and the enzyme: renin; from tissue; host or cells: pool of human plasma
T1 sequence (P00797 67-406): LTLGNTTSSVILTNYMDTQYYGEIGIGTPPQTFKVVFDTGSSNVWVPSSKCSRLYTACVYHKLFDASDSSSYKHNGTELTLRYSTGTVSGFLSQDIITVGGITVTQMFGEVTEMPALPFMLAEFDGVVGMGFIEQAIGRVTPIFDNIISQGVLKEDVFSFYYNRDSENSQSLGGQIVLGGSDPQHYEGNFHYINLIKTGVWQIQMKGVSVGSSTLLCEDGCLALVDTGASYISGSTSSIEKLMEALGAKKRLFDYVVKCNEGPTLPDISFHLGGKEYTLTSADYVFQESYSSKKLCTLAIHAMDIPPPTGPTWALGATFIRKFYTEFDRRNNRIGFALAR
The experiment is described as follows: Inhibition of the human plasma renin activity (P.R.A.). Type of experiment: biochemical. Conditions: 37° C., pool of human plasma. The procedure: The angiotensin I released during the reaction (the human plasma contain and the substrate: angiotensinogen, and the enzyme: renin) is measured by radioimmunological determination using a kit.
Of course, an inhibitor of the enzyme for conversion of the PMSF (phenylmethylsulphonyl fluoride) is added to the incubation medium.
Two types of experiments were carried out:
one at pH 6, which is the optimum pH for the enzyme reaction with human renin (maleate buffer, incubation: 30 minutes), and
the other at pH 7.4, which is the physiological pH (phosphate buffer, incubation: 60 minutes).
(§1) A 10^-3 M stock solution of the peptide is made up in a mixture containing equal volumes of a solution A (19 ml of methanol+1 ml of acetic acid) and a solution B (4 ml of methanol+2 ml of sodium hydroxide solution).
(§2) The subsequent dilutions of the peptide are then prepared in the appropriate buffer in accordance with the procedures described above.

For experiment [2], the target named is porcine pepsin (Sus scrofa, UniProt P00791). The experiment is described as follows: Inhibition of porcine pepsin. Type of experiment: biochemical. Particulars: pH 2, substrate bovine haemoglobin, 37° C. The procedure:
The method used is that of TAKAAKI AOYAGI (J. Antibiotics, 24, pages 687-694, 1971). The substrate used is bovine haemoglobin and the enzyme is porcine pepsin.
0.5% strength haemoglobin is hydrolysed with pepsin (1 mcg/ml) at 37° C. in 0.02M KCl-HCl buffer at pH 2.
Preincubation takes place for 3 minutes, followed by incubation for 25 minutes. After precipitation of the proteins with 1.7M perchloric acid, the optical density of the supernatant is determined on a spectrophotometer at 280 nm.
The results are expressed as the percentage inhibition of the maximum optical density obtained in the absence of inhibitor. They are also expressed as an IC50.
as §1, §2

Setting [3] is: pH 6, maleate buffer, incubation 30 minutes, read-out: INHIBITION OF HUMAN P.R.A. (IC50) pH 6.
Where [4] appears, read: pH 7.4, phosphate buffer, incubation 60 minutes, read-out: INHIBITION OF HUMAN P.R.A. (IC50) pH 7.4.

Like-named read-outs stand apart in the source and are kept apart here. Non-standard residues stand in square brackets, D forms with d. Residues, ends and D or L forms follow the SMILES beside them. *: point of attachment. X1 = COC(=O)C[C@@H](O)[C@H](CC(C)C)N*; Benzenesulfonyl = O=S(=O)(c1ccccc1)*; Benzylsulfonyl = O=S(=O)(Cc1ccccc1)*; Sta = CC(C)C[C@H](N)[C@@H](O)CC(=O)O; Hydrocinnamoyl = O=C(CCc1ccccc1)*; X2 = O=C(NCCS(=O)(=O)*)OCc1ccccc1; Isovaleryl = CC(C)CC(=O)*; Nle = CCCC[C@H](N)C(=O)O; Nva = CCC[C@H](N)C(=O)O; Cbz = O=C(OCc1ccccc1)*; Boc = CC(C)(C)OC(=O)*

Chain of porcine pepsin (P00791 60-385): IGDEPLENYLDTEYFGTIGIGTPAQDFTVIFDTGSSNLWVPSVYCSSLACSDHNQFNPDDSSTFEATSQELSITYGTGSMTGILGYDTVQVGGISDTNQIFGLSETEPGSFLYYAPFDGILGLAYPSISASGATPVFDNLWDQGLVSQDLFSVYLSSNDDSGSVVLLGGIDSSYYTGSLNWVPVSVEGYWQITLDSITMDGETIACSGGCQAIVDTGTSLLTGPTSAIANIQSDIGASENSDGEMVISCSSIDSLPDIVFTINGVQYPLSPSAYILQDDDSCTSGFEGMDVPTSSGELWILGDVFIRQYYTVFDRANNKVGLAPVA

Regarding `CC(C)C[C@H](NC(=O)[C@H](C)NC(=O)C[C@H](O)[C@H](CC(C)C)NC(=O)[C@H](Cc1ccccc1)NC(=O)[C@H](Cc1ccccc1)NC(=O)OCc1ccccc1)[C@@H](O)CC(=O)O` [SR 41225, Z--Phe--Phe--Sta--Ala--Sta--OH] (Cbz-FF[Sta]A[Sta]-OH), the IC50 was found to be 70 nM in experiment [1] (setting [3]), 1000 nM in experiment [1] (setting [4]) and 90 nM in experiment [2].

`COC(=O)C[C@H](O)[C@H](CC(C)C)NC(=O)[C@H](C)NC(=O)C[C@H](O)[C@H](CC(C)C)NC(=O)[C@H](Cc1ccccc1)NC(=O)[C@H](Cc1ccccc1)NC(=O)OCc1ccccc1` [SR 41320, Z--Phe--Phe--Sta--Ala--Sta--OMe] (Cbz-FF[Sta]A[Sta]-OMe): the IC50 in experiment [1] (setting [3]) was 17 nM; in experiment [1] (setting [4]), 3500 nM; in experiment [2], 30 nM.

Turning to `COC(=O)C[C@H](O)[C@H](CC(C)C)NC(=O)[C@H](C)NC(=O)C[C@H](O)[C@H](CC(C)C)NC(=O)[C@@H](NC(=O)[C@@H](Cc1ccccc1)NC(=O)OC(C)(C)C)C(C)C` [SR 41377, Boc--(D)Phe--Val--Sta--Ala--Sta--OCH3] (Boc-[dF]V[Sta]A[Sta]-OMe), the IC50 in experiment [2] was 47 nM.

As for `COC(=O)C[C@H](O)[C@H](CC(C)C)NC(=O)[C@H](C)NC(=O)C[C@H](O)[C@H](CC(C)C)NC(=O)[C@H](Cc1c[nH]c2ccccc12)NC(=O)[C@H](Cc1ccccc1)NC(=O)OCc1ccccc1` [SR 41416, Z Phe--Trp--Sta--Ala--Sta--OMe] (Cbz-FW[Sta]A[Sta]-OMe), the IC50 in experiment [1] (setting [3]) was 80 nM; in experiment [1] (setting [4]), 1400 nM; in experiment [2] it was 65 nM.

On to `COC(=O)C[C@H](O)[C@H](CC(C)C)NC(=O)[C@H](C)NC(=O)C[C@H](O)[C@H](CC(C)C)NC(=O)[C@@H](NC(=O)[C@H](Cc1ccc(O)cc1)NC(=O)OCc1ccccc1)C(C)C` [SR 41476, Z--Tyr--Val--Sta--Ala--Sta--OMe] (Cbz-YV[Sta]A[Sta]-OMe), for which the 50% inhibitory concentration (IC50) is 170 nM in experiment [1] (setting [3]), 2200 nM in experiment [1] (setting [4]) and 24 nM in experiment [2].

For the compound `CC[C@H](C)[C@H](NC(=O)[C@H](Cc1ccccc1)NC(=O)OCc1ccccc1)C(=O)N[C@@H](CC(C)C)[C@@H](O)CC(=O)N[C@@H](C)C(=O)N[C@@H](CC(C)C)[C@@H](O)CC(=O)OC` [SR 41477, Z--Phe--ILe--Sta--Ala--Sta--OMe] (Cbz-FI[Sta]A[Sta]-OMe), the IC50 in experiment [1] (setting [3]) worked out at 35 nM; in experiment [1] (setting [4]), 1000 nM; in experiment [2] it was 38 nM.

Consider `CC(C)C[C@H](NC(=O)[C@H](C)NC(=O)C[C@H](O)[C@H](CC(C)C)NC(=O)[C@@H](NC(=O)[C@@H](Cc1ccccc1)NC(=O)OC(C)(C)C)C(C)C)[C@@H](O)CC(=O)O` [SR 41491, Boc--(D)Phe--Val--Sta--Ala--Sta--OH] (Boc-[dF]V[Sta]A[Sta]-OH), for which the IC50 in experiment [1] (setting [3]) was determined as 260 nM; in experiment [1] (setting [4]), 4000 nM; in experiment [2] it was 22 nM.

Turning to `COC(=O)C[C@H](O)[C@H](CC(C)C)NC(=O)[C@H](C)NC(=O)C[C@H](O)[C@H](CC(C)C)NC(=O)[C@H](Cc1ccccc1)NC(=O)[C@@H](Cc1ccccc1)NC(=O)OC(C)(C)C` [SR 41518, Boc--(D)Phe--Phe--Sta--Ala--Sta--OMe] (Boc-[dF]F[Sta]A[Sta]-OMe), the IC50 in experiment [1] (setting [3]) came to 950 nM; in experiment [2] it was 480 nM.

Regarding `COC(=O)C[C@H](O)[C@H](CC(C)C)NC(=O)[C@H](C)NC(=O)C[C@H](O)[C@H](CC(C)C)NC(=O)[C@H](Cc1c[nH]cn1)NC(=O)[C@H](Cc1ccccc1)NS(=O)(=O)CCNC(=O)OCc1ccccc1` [SR 41748, Z--Tau--Phe--His--Sta--Ala--Sta--OCH3] (X2-FH[Sta]A[Sta]-OMe), the values for the IC50 in experiment [1] (setting [3]), in experiment [1] (setting [4]) and in experiment [2] were 2.2 nM, 110 nM and 620 nM, respectively.

Regarding `COC(=O)C[C@H](O)[C@H](CC(C)C)NC(=O)[C@H](C)NC(=O)C[C@H](O)[C@H](CC(C)C)NC(=O)[C@H](Cc1ccccc1)NC(=O)[C@H](Cc1ccccc1)NC(=O)CC(C)C` [SR 41764, iVa--Phe--Phe--Sta--Ala--Sta--OMe] (Isovaleryl-FF[Sta]A[Sta]-OMe), the half-inhibitory concentration (IC50) in experiment [1] (setting [3]) worked out at 12 nM; in experiment [1] (setting [4]) it was 310 nM; in experiment [2], 42 nM.

Regarding `COC(=O)C[C@H](O)[C@H](CC(C)C)NC(=O)[C@H](C)NC(=O)C[C@H](O)[C@H](CC(C)C)NC(=O)[C@H](CC(C)C)NC(=O)[C@H](Cc1ccccc1)NC(=O)CC(C)C` [SR 41765, iVa--Phe--Leu--Sta--Ala--Sta--OMe] (Isovaleryl-FL[Sta]A[Sta]-OMe), the IC50 in experiment [1] (setting [3]) was determined as 0.33 nM; in experiment [1] (setting [4]) it was 75 nM; in experiment [2], 8 nM.

As to `COC(=O)C[C@@H](O)[C@H](CC(C)C)NC(=O)[C@H](C)NC(=O)C[C@H](O)[C@H](CC(C)C)NC(=O)[C@H](Cc1ccccc1)NC(=O)[C@H](Cc1ccccc1)NC(=O)CC(C)C` [SR 41766, iVa--Phe--Phe--Sta--Ala--isoSta--OMe] (Isovaleryl-FF[Sta]A-X1), the IC50 amounted to 14 nM in experiment [1] (setting [3]), 420 nM in experiment [1] (setting [4]) and 58 nM in experiment [2].

As to `COC(=O)C[C@H](O)[C@H](CC(C)C)NC(=O)[C@H](C)NC(=O)C[C@H](O)[C@H](CC(C)C)NC(=O)[C@H](Cc1ccccc1)NC(=O)[C@H](Cc1ccccc1)NC(=O)CCc1ccccc1` [SR 41768, C6 H5 CH2 CH2 CO--Phe--Phe--Sta--Ala--Sta--OMe] (Hydrocinnamoyl-FF[Sta]A[Sta]-OMe), the figures for the IC50 in experiment [1] (setting [3]), in experiment [1] (setting [4]) and in experiment [2] were 50 nM, 1000 nM and 42 nM, respectively.

Turning to `COC(=O)C[C@H](O)[C@H](CC(C)C)NC(=O)[C@H](C)NC(=O)C[C@H](O)[C@H](CC(C)C)NC(=O)[C@H](Cc1ccccc1)NC(=O)[C@H](Cc1ccccc1)NS(=O)(=O)c1ccccc1` [SR 41938, C6 H5 SO2 --Phe--Phe--Sta--Ala--Sta--OCH3] (Benzenesulfonyl-FF[Sta]A[Sta]-OMe), the IC50 came out at 1.6 nM in experiment [1] (setting [3]), 440 nM in experiment [1] (setting [4]) and 63 nM in experiment [2].

Turning to `COC(=O)C[C@H](O)[C@H](CC(C)C)NC(=O)[C@H](C)NC(=O)C[C@H](O)[C@H](CC(C)C)NC(=O)[C@H](Cc1ccccc1)NC(=O)[C@H](Cc1ccccc1)NS(=O)(=O)Cc1ccccc1` [SR 41939, C6 H5 CH2 SO2 --Phe--Phe--Sta--Ala--Sta--OCH3] (Benzylsulfonyl-FF[Sta]A[Sta]-OMe), the IC50 in experiment [1] (setting [3]) is 17 nM; in experiment [1] (setting [4]), 880 nM; in experiment [2], 36 nM.

As to `CCC[C@H](NC(=O)[C@H](Cc1ccccc1)NC(C)=O)C(=O)N[C@@H](CC(C)C)[C@@H](O)CC(=O)N[C@@H](C)C(=O)N[C@@H](CC(C)C)[C@@H](O)CC(=O)OC` [SR 41994, Ac--Phe--Nva--Sta--Ala--Sta--OMe] (Ac-F[Nva][Sta]A[Sta]-OMe), the concentration for half-maximal inhibition (IC50) worked out at 0.76 nM in experiment [1] (setting [3]), 260 nM in experiment [1] (setting [4]) and 13 nM in experiment [2].

On to `CCC[C@H](NC(=O)[C@H](Cc1ccccc1)NC(=O)OC(C)(C)C)C(=O)N[C@@H](CC(C)C)[C@@H](O)CC(=O)N[C@@H](C)C(=O)N[C@@H](CC(C)C)[C@@H](O)CC(=O)OC` [SR 41996, Boc--Phe--Nva--Sta--Ala--Sta--OMe] (Boc-F[Nva][Sta]A[Sta]-OMe), for which the 50% inhibitory concentration (IC50) in experiment [1] (setting [3]) was found to be 0.0011 nM; in experiment [1] (setting [4]), 51 nM.

Take `CCCC[C@H](NC(=O)[C@H](Cc1ccccc1)NC(=O)CC(C)C)C(=O)N[C@@H](CC(C)C)[C@@H](O)CC(=O)N[C@@H](C)C(=O)N[C@@H](CC(C)C)[C@@H](O)CC(=O)O` [SR 42128, iVa--Phe--Nle--Sta--Ala--Sta--OH] (Isovaleryl-F[Nle][Sta]A[Sta]-OH): the IC50 in experiment [2] is 19 nM.

Values taken from patent publication US4481192A, “Acid-protease inhibiting peptide derivatives” (SANOFI, priority 1982, dated 1984).
